Assay results as given in patent US20130029928A1 (priority 2010, published 2013).
Several values for one entry are separate records, joined by “and”; a condition that tells them apart may be missing. Equal entries are not always repeated. Entries after “also recorded” stand apart in the source; their conditions may differ. Where two headings read alike, the source gives them in different places.

Assays:
HT-29 = test: SRB cytotoxicity assay 48 hr; assay type: cell-based, human; details: read-out: IC50 Values After 48 Hrs Exposure
Protocol: (§3) The SRB assay was performed according to the method specified by the NIC/NIH. […] Assay replicates were independent in time and up to 4 replicates were performed per cell line.

MDA-MB-157 [1] = test: SRB cytotoxicity assay 48 hr; assay type: cell-based, human; details: read-out: IC50 Values After 48 Hrs Exposure
Protocol: as §3

HepG2 = test: SRB cytotoxicity assay 48 hr; assay type: cell-based, human; details: read-out: IC50 Values After 48 Hrs Exposure
Protocol: as §3

PC3 [2] = test: SRB cytotoxicity assay 48 hr; assay type: cell-based, human; details: read-out: IC50 Values After 48 Hrs Exposure
Protocol: as §3

A375 = test: SRB cytotoxicity assay 48 hr; assay type: cell-based, human; details: read-out: IC50 Values After 48 Hrs Exposure
Protocol: as §3

Capan2 = test: ATP depletion cytotoxicity assay 48 hr; assay type: cell-based, human
Protocol: (§4) Assay replicates were independent in time and up to 4 replicates were performed per cell line.
(§5) Cells were plated at the optimal plating density for that cell line in 96-well plates and allowed to attach overnight. The next day, the medium was removed and replaced with fresh medium containing the dose ranges of test items. […] There were 3 replicates for each test item concentration.
(§6) Following exposure to Test Items, the CellTitre-Glo Luminescent Cell Viability Assay to measure ATP content was performed according to the manufacturer's detailed instructions (Promega Corporation, Technical Bulletin No. 288, and Cell notes, Issue 10, 2004).
(§7) Cells were plated at the optimal plating density for that cell line in 96-well plates and allowed to attach overnight. The next day, cells were pre-treated with the inhibitors UO126 or LY294002 (see Tables 18 & 20) for 2 hrs, the medium was removed and replaced with fresh medium containing the appropriate dose of the test item. […] Cells were exposed to these compounds in Roswell Park Memorial Institute (RPMI) medium containing 10% Foetal Calf Serum (FCS) and 2 mM Glutamine at 37° C. and 5% CO2 for 48 hours. There were 3 replicates for each test item concentration.
(§8) Following exposure to Test Items, the CellTitre-Glo Luminescent Cell Viability Assay to measure ATP content will be performed according to the manufacturer's detailed instructions (Promega Corporation, Technical Bulletin No. 288, and Cell notes, Issue 10, 2004).

SK-OV3 = test: ATP depletion cytotoxicity assay 48 hr; assay type: cell-based, human
Protocol: as §4, §5, §6, §7, §8

OV-90 = test: ATP depletion cytotoxicity assay 48 hr; assay type: cell-based, human
Protocol: as §4, §5, §6, §7, §8

PC3 [3] = test: ATP depletion cytotoxicity assay 48 hr; assay type: cell-based, human
Protocol: as §4, §5, §6, §7, §8

CaCo-2 = test: ATP depletion cytotoxicity assay 48 hr; assay type: cell-based, human
Protocol: as §4, §5, §6, §7, §8

MDA-MB-157 [4] = test: ATP depletion cytotoxicity assay 48 hr; assay type: cell-based, human
Protocol: as §4, §5, §6, §7, §8

HT1080 = test: ATP depletion cytotoxicity assay 48 hr; assay type: cell-based; details: Homo sapiens, HT-1080, Study CXR0798, read-out: IC50 1
Protocol: as §3

Canine Hepatocytes = test: ATP depletion cytotoxicity assay 48 hr; assay type: cell-based; details: Canis lupus familiaris, Hepatocyte, Study CXR0798, read-out: IC50 1
Protocol: as §3

[5] = tested on: panel of human tumour-derived cell lines; test: BrdU incorporation (cell proliferation) in the SRB cell line panel; assay type: cell-based; details: 48 hrs
[6] = tested on: HT-29 (colon adenocarcinoma) tumours; test: HT-29 xenograft in nude mice; assay type: in vivo, nude mouse
Description: Animals were inoculated with a tumour cell suspension on each flank and the tumours were allowed to grow for 16 days.
(§1) These effects are consistent with a transient effect on the liver associated with mild toxicity and reversible liver enlargement. In rodents, this type of effect is usually due to hepatic PPARα activation associated with peroxisome proliferation.

[7] = PC3 xenograft in nude mice; assay type: in vivo, nude mouse; details: nude, mouse, plasma, intraperitoneal; PC3 model; 25 mg/kg three times weekly; 24 hrs post last dose; Day 29
Protocol: (§2) A parallel experiment was carried out using the prostate tumour cell line PC3.
as §1

[8] = tested on: PC3 (prostate) xenograft tumours; test: PC3 xenograft in nude mice; assay type: in vivo, nude mouse
Protocol: as §2, §1

[9] = tested on: patients with advanced cancer; test: Phase I study CXR1002-001: safety and toxicity; assay type: in vivo, human; details: at the doses examined to date
Description: These patients then underwent repeat dosing schedule with the same dose of CXR1002. […] Dose limiting toxicity (DLT) will be based on the toxicity assessments over the first 3-week period of the repeat dosing schedule. PK samples (single blood sample) were taken on the following basis: • Every 6 weeks during the repeat dosing phase • If dosing is interrupted or stopped, samples will be taken at intervals according to patient convenience • PK sampling for safety evaluation may take place at any time, as clinically indicated
In all dose cohorts subsequent to the initial dose cohort, all patients will be treated with weekly administration of study drug from the start of dosing. Dose escalation was performed after all patients at the preceding dose level had completed a 3-week repeat dosing period.

[10] = Phase I study CXR1002-001: urinary excretion; assay type: in vivo, human; details: 24 hour urine post each weekly dose
Water solubility = assay type: physicochemical
[11] = tested on: Panc-1 (pancreatic tumour) cells; test: Western blot of ER stress-regulated proteins in Panc-1 cells; assay type: cell-based, human; details: 500 μM, 4 h to 4 days
Protocol: Western blots were performed on the protein extracts (equivalent protein concentrations were loaded onto the gels). The antibodies used were for known ER stress regulated protein Bip/GRP78, CHOP/DDIT3, IRE1alpha, TRB3 (Tribbles3), cleaved PARP (marker of apoptosis), and tubulin (loading control) (see FIG. 71).

Metabolism = details: patients / human
Description: It is presumed that CXR1002 will eventually reach a steady state level after a number of doses, in an analogous way to its accumulative exposure in monkeys.
Unlike most other anti-tumour agents, PFOA is efficiently absorbed following oral exposure.

[12] = read-out: IC50 1-4 (independent replicates)

## O=C(O)C(F)(F)C(F)(F)C(F)(F)C(F)(F)C(F)(F)C(F)(F)C(F)(F)F [CXR1002]
HT-29
  IC50: 342 ± 10.6 µM
MDA-MB-157 [1]
  IC50: 463 ± 168 µM
HepG2
  IC50: 162 ± 31.8 µM
PC3 [2]
  IC50: 272 ± 40.7 µM
A375
  IC50: 222 ± 21.2 µM
Capan2; Homo sapiens, Capan-2, 48 h, read-out: IC50 1-4 (independent replicates), ATP depletion, 48 hrs, Capan2
  IC50: 850 µM
Capan2; Homo sapiens, Capan-2, 48 h, read-out: IC50 Mean, ATP depletion, 48 hrs, Capan2
  IC50: 817 µM
Capan2; read-out: IC50 1-4 (independent replicates), ATP depletion, 48 hrs, Capan2
  IC50: 750 µM
SK-OV3; Homo sapiens, SK-OV-3, 48 h, read-out: IC50 1-4 (independent replicates)
  IC50: 550 µM
SK-OV3; Homo sapiens, SK-OV-3, 48 h, read-out: IC50 Mean
  IC50: 535 µM
SK-OV3; [12]
  IC50: 520 µM
OV-90; ATP depletion, 48 hrs, read-out: IC50 1-4 (independent replicates)
  IC50: 670 µM
OV-90; Homo sapiens, OV-90, 48 h, ATP depletion, 48 hrs, read-out: IC50 1-4 (independent replicates)
  IC50: 650 µM
OV-90; Homo sapiens, OV-90, 48 h, ATP depletion, 48 hrs, read-out: IC50 Mean
  IC50: 657 µM
OV-90; Homo sapiens, OV-90, 48 h, Example 7, 48 hour, CXR1002 0-1 mM, U0126 fixed 10 μM where combined, read-out: IC50
  IC50: 714 µM
PC3 [3]; Homo sapiens, PC-3, 48 h, read-out: IC50 1-4 (independent replicates)
  IC50: 650 µM
PC3 [3]; Homo sapiens, PC-3, 48 h, read-out: IC50 Mean
  IC50: 642 µM
PC3 [3]; [12]
  IC50: 625 µM
CaCo-2; ATP depletion, 48 hrs, CaCo-2, read-out: IC50 1-4 (independent replicates)
  IC50: 690 µM and 670 µM
CaCo-2; Homo sapiens, Caco-2, 48 h, ATP depletion, 48 hrs, CaCo-2, read-out: IC50 1-4 (independent replicates)
  IC50: 680 µM
CaCo-2; Homo sapiens, Caco-2, 48 h, ATP depletion, 48 hrs, CaCo-2, read-out: IC50 Mean
  IC50: 680 µM
CaCo-2; Homo sapiens, Caco-2, 48 h, Example 7, 48 hour, CaCO2, CXR1002 0-1 mM, U0126 fixed 10 μM where combined, read-out: IC50
  IC50: 704 µM
MDA-MB-157 [4]; Homo sapiens, MDA-MB-157, 48 h, read-out: IC50 1-4 (independent replicates), ATP depletion, 48 hrs, MDA-MB-157
  IC50: 670 µM
MDA-MB-157 [4]; Homo sapiens, MDA-MB-157, 48 h, read-out: IC50 Mean, ATP depletion, 48 hrs, MDA-MB-157
  IC50: 665 µM
MDA-MB-157 [4]; read-out: IC50 1-4 (independent replicates), ATP depletion, 48 hrs, MDA-MB-157
  IC50: 675 µM and 650 µM
HT1080
  IC50: > 1 mM
Canine Hepatocytes
  IC50: 240 µM
[5]; 10 μM
  BrdU incorporation: No marked effects
[5]; 30 μM
  BrdU incorporation: variable
[5]; 300 μM, all but one of the cell lines
  BrdU incorporation: Significant suppression of BrdU incorporation
[6]; 25 mg/kg i.p. three times per week for 28 days
  effect on tumour volumes: anti-tumour effect
[6]; HT-29, 25 mg/kg i.p. three times per week, Day 29
  Absolute Tumour Volume as a Percentage of Saline Control: 49.22%
[6]; HT-29 model
  effect on body weight: No significant compound-dependent effects
  increase in liver weight: up to 2.5 fold
[6]; HT-29 model, 24 hrs post last dose, Day 29
  Terminal / maximum CXR1002 plasma level: 277 µM
[6]; mice bearing HT-29 xenografts
  increase in plasma AST: up to 3.5 fold
  plasma ALT levels: decreased
[6]; tumour-bearing nude mice, HT-29
  plasma glucose and triglyceride levels: slight reductions
[7]
  concentration at 24 h: 281 µM
[8]; 5, 15 and 25 mg/kg i.p.
  effect on tumours: marked anti-tumour effect
[8]; PC3-tumour bearing mice
  increase in plasma ALT: up to 1.8 fold
[8]; PC3, 25 mg/kg i.p., Day 25
  Absolute Tumour Volume as a Percentage of Saline Control: 19.14%
[8]; PC3 model
  effect on body weight: No marked effects on body weight
  liver weight: increase in liver weight
[8]; PC3 model, 25 mg/kg three times weekly, 24 hrs post last dose, Day 29
  Terminal / maximum CXR1002 plasma level: 281 µM
[8]; mice bearing PC3 xenografts
  increase in plasma AST: up to 3.5 fold
[8]; tumour-bearing nude mice, PC-3
  plasma glucose and triglyceride levels: slight reductions
[9]
  clinical toxicity: relatively non-toxic
[10]
  urinary excretion: increases with multiple doses
Water solubility
  solubility in water: freely soluble in water; also recorded: highly water soluble
[11]
  expression of ER stress-regulated proteins: altered expression of ER stress-regulated proteins
Metabolism
  metabolism: not metabolised
